Legend:
Erk →pRsk = experiment: Cellular substrate phosphorylation (Western blotting), Erk substrate Rsk1; format: cell-based; conditions: 5 h, tumour cell line
Description: (§1) This method enables a statement of whether the kinase modulator investigated achieves the desired effect in a cellular context too, i.e., in this case, a substrate protein downstream of the target kinase is examined for its phosphorylation status. To this end, the cells incubated with substance are lysed and the overall protein is separated on a reducing polyacrylamide gel. Subsequently, the proteins are transferred by means of Western blotting to a PVDF membrane and the substrate bands sought are made visible with specific antibodies and a suitable detection method. The substrate proteins downstream of the target kinases are detected simultaneously with an anti-phospho antibody which is specific in each case and simultaneously a total antibody which recognizes the substrate total protein. The duplex technology of the ODYSSEY imager (LiCOR) enables this simultaneous measurement. The intensity of the total substrate bands is employed to normalize and quantify the phosphorylation inhibition or activation.
(§2) Suitable tumour cell lines (e.g. BxPC3, Hct116 or MDA MB468) were seeded into 6-well microtitre plates in a defined cell count (e.g. 350 000 cells/well for BxPC3 and Hct116) in the particular standard complete media and then incubated overnight in an incubator at 37° C., 5% CO2 and 95% air humidity. The cells were then incubated further for a further 24 h under reduced-serum conditions, i.e. in the particular medium except at only 0.25% serum. The test substances were made up as stock solutions (10 mM) in DMSO and incubated with the cells at final concentrations of 5, 15.8 and 50 μM for 5 h. This was followed by cell lysis in 25 mM Tris, 150 mM NaCl, 10 mM sodium pyrophosphate, 2 mM EGTA, 25 mM beta-glycerophosphate, 25 mM NaF, 10% glycerol, 0.75% NP-40, 100 μM NaVO4 buffer. After protein quantification by means of BCA (bicinchonic acid protein assay kit, Sigma) assay, amounts of protein of about 20 μg per track were separated on a Lammli polyacrylamide gel and then transferred onto a PVDF membrane (Millipore) by means of semi-dry Western blotting at 0.8 mA/cm^2 for 1 h. This was followed by prehybridization of the membrane for 1 hour in I-block reagent (Applied Biosystems) and overnight incubation with the specific antibodies. To determine the Erk and PI3K inhibition, the next substrates Rsk1 downstream were detected with the total antibody (Rsk #sc-231g C-21, Santa Cruz) and the phospho antibody (Phospho-p90RSK (S380) #9341, NEB Cell Signalling) and Akt with the total antibody (Akt1 #sc-20, Santa Cruz) and the phospho antibody (Phospho-Akt (Ser 473) #9271, NEB Cell Signaling). After the membrane had been washed, the secondary antibodies were incubated with anti-rabbit IR Dye 800 (#611-732-127, Rockland) for the phospho antibody and anti-goat Alexa Fluor 680 (#A-21081, […]) for the total protein antibody. After incubation for 30 min at room temperature in the dark, the hybridization of the detection antibody was detected on the membrane by scanning in an ODYSSEY imager (LiCOR).

PI3K →pAkt = experiment: Cellular substrate phosphorylation (Western blotting), PI3K substrate Akt; format: cell-based; conditions: 5 h, tumour cell line
Description: as §1, §2

Jnk1 + Jnk2 = experiment: Cell-free kinase assay (ALPHA technology), Jnk1 + Jnk2; format: biochemical; conditions: at 10 μM or 100 μM* ATP, recombinant human kinases
Description: (§3) The inhibitory effect of the inventive compounds was tested on various human serine/threonine kinases, tyrosine kinases and lipid kinases in enzymatic assays. Recombinant human kinases, for example Erk2, PI3Kalpha, -beta, -gamma, -delta, p38alpha, p38gamma, Jnk1, Jnk2 and others were used, in some cases as full-length kinases, in some cases as truncated fragments—but at least consisting of the functional kinase domains. The commercial kinase proteins (Proqinase, Upstate) were used as recombinant fusion proteins with GST (glutathione S-transferase) tag or His tag. Depending on the substrate type, the different kinase reactions were quantified by means of suitable ALPHA™ beads (PerkinElmer). […]
(§4) The fluorescence was detected the next morning in a Fusion™ alpha instrument (Perkin Elmer).
(§5) The calculation of % inhibition values per substance concentration was done by means of the following formula from the raw data determined in the Fusion™ alpha:
(§6) The controls were each determined 8 times, the substance samples each twice. 0% control contained neither any ATP nor any substrate; the 100% control contained no test substance. The IC50 values were determined with GraphPadPrism.

Erk2 = biological target: T1, Erk2; experiment: Cell-free kinase assay (ALPHA technology), Erk2-ALPHA; format: biochemical; conditions: 10 μM ATP, recombinant human kinase
T1 construct: in some cases as full-length kinases, in some cases as truncated fragments; purchased Upstate 14-173
T1 sequence (P63085 whole entry, the tested form may be a part): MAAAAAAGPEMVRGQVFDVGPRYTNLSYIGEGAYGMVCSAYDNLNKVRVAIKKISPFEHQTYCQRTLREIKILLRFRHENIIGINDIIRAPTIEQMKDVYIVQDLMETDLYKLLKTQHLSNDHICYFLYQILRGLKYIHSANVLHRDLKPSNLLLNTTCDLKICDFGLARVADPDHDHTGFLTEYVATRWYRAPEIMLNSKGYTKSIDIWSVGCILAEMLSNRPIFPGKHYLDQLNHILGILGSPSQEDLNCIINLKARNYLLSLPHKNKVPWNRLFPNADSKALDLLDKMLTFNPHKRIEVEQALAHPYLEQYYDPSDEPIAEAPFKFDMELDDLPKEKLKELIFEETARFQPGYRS
Description: (§7) The inhibitory effect of the inventive compounds was tested on various human serine/threonine kinases, tyrosine kinases and lipid kinases in enzymatic assays. Recombinant human kinases, for example Erk2, PI3Kalpha, -beta, -gamma, -delta, p38alpha, p38gamma, Jnk1, Jnk2 and others were used, in some cases as full-length kinases, in some cases as truncated fragments—but at least consisting of the functional kinase domains. The commercial kinase proteins (Proqinase, Upstate) were used as recombinant fusion proteins with GST (glutathione S-transferase) tag or His tag. Depending on the substrate type, the different kinase reactions were quantified by means of suitable ALPHA™ beads (PerkinElmer).
(§8) The substrate testing on the Erk assay is described in detail below. Selected test results of the Erk2, PI3Kalpha assays are cited below. […] The kinase reaction was then stopped by adding 10 μl of the ALPHA bead mix (10 μg/ml, #6760617/PerkinElmer), pre-incubated with anti-phospho MBP antibody (320 μM, #05-429/Upstate), in 25 mM Tris, 200 mM NaCl, 100 mM EDTA and 0.3% BSA, and left to stand overnight. • b) PI3K-ALPHAs (e.g. PI3Kalpha): The test substance, 1 ng of PI3Kalpha (#14-602, Upstate), 100 μM ATP and 20 μM PIP2 substrate (#P4508, Echelon) on a 384-well Optiplate (Perkin Elmer) for 1 h in 50 mM Hepes, 50 mM NaCl, 5 mM MgCl2, 0.05% Chaps, 5 mM DTT at pH 7.4. Subsequently, the kinase reaction was stopped by adding the ALPHA bead mix (10 μg/ml, #6760603/PerkinElmer), preincubated with 1 nM GST:Grp1 fusion protein (Upstate) and 15 nM biotinylated PIP3 (#C-39B6/Echelon) in 50 mM Hepes, 50 mM NaCl, 50 mM EDTA and 0.1% BSA, and left to stand overnight.
as §4, §5, §6

Hct116 = experiment: XTT assay, anti-proliferative action, Hct116; format: cell-based; conditions: Homo sapiens, HCT-116, 45 h, Hct116 cells, 45 h incubation
Description: (§9) The principle of this test is based on the intracellular reduction of the tetrazolium dye XTT (sodium 3′-[1-(phenylaminocarbonyl)-3,4-tetrazolium]bis(4-methoxy-6-nitro)benzenenesulphonic acid, Sigma) to a formazan dye by mitochondrial dehydrogenases.
(§10) The dye is formed only by metabolically active cells; its photometrically measurable intensity is a quantitative indicator for the presence of living cells. The reduction in the dye formation as a result of incubation of the cells with substances serves as a parameter for the anti-proliferative action.
(§11) The tumour cell lines (ATCC) were seeded in 96-well microtitre plates in a defined cell count (5000 cells/well for BxPC3 and Hct116; 10 000 cells/well for MDA MB468), and then incubated overnight in an incubator at 37° C., 5% CO2 and 95% air humidity. The test substances were made up as stock solutions (10 mM) in DMSO. […] The cell plates were then incubated for 45 h in an incubator at 37° C., 5% CO2 and 95% air humidity.
(§12) For the detection reaction, the XTT substrate was admixed with PMS (N-methyldibenzopyrazine methylsulphate, Sigma) and added to the cells, so as to result in a final concentration of 325 μg of XTT/ml and 2.5 μg PMS/ml. The mixture was then incubated for 3 h at 37° C., 95% air humidity. Subsequently the formazan salt formed by cellular dehydrogenases was quantified at an absorption of 490 nm.
(§13) The evaluation of the % inhibition values was done by means of the following formula from the values for the optical densities measured in each case at 490 nm:
(§14) The controls were determined 8 times each, the substance samples twice each. 0% control contained no cells; the 100% control contained no test substance. The EC50 values were determined with GraphPadPrism.

PI3Kalpha = biological target: T2, PI3Kalpha (Homo sapiens, UniProt P42336); experiment: Cell-free kinase assay (ALPHA technology), PI3K-ALPHA; format: biochemical; conditions: 100 μM ATP, recombinant human kinase
T2 construct: in some cases as full-length kinases, in some cases as truncated fragments; purchased Upstate 14-602
T2 sequence (P42336 whole entry, the tested form may be a part): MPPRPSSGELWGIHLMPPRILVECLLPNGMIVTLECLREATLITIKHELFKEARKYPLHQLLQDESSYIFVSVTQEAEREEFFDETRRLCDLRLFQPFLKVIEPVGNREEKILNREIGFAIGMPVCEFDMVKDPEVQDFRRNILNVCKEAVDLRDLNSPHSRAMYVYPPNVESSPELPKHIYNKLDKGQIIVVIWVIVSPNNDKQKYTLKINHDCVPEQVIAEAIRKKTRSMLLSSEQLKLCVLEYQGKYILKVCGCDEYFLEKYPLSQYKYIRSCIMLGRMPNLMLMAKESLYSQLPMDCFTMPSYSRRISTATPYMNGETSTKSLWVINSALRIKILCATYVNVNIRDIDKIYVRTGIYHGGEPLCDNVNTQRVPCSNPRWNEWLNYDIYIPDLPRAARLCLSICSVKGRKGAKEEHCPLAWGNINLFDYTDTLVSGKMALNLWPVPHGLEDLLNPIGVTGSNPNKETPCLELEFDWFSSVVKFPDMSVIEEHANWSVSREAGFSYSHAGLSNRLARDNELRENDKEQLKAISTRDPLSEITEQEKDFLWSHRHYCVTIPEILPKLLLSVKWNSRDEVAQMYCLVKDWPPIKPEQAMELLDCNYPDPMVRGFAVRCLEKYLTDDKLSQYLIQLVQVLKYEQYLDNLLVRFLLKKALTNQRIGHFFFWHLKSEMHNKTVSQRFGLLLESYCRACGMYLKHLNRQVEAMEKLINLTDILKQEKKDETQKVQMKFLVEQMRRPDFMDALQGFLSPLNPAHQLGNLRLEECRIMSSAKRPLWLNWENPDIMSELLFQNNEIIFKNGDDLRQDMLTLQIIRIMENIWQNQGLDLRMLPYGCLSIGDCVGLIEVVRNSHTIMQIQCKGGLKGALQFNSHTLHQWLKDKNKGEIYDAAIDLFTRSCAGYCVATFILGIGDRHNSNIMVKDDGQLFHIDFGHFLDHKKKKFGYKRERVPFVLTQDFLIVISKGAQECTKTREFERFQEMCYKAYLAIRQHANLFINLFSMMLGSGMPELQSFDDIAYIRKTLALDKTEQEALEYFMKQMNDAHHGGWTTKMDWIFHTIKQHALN
T2 sequence (P27986 whole entry partner, the tested form may be a part): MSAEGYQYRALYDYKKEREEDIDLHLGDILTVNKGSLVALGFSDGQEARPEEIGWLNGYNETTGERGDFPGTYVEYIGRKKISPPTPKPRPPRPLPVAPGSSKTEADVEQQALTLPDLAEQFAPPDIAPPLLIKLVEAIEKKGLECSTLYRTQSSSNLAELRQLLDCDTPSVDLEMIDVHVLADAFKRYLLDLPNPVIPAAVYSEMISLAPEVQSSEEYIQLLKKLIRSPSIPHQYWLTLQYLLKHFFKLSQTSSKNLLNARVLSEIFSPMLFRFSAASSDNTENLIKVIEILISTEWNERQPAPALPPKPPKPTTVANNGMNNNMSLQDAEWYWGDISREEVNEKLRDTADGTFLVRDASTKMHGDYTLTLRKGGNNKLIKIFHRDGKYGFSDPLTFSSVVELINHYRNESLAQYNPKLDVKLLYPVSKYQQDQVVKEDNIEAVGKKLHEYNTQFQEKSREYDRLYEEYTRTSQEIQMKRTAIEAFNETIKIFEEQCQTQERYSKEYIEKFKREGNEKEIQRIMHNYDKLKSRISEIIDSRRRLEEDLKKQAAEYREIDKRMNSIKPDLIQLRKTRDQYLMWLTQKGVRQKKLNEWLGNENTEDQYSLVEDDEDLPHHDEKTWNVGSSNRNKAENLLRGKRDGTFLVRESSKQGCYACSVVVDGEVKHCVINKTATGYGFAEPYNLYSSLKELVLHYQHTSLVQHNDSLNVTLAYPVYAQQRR
Description: as §7, §8, §4, §5, §6

BxPC3 = experiment: XTT assay, anti-proliferative action, BxPC3; format: cell-based; conditions: BxPC3 cells, 45 h incubation
Description: as §9, §10, §11, §12, §13, §14

MDA-MB468 = experiment: XTT assay, anti-proliferative action, MDA-MB468; format: cell-based; conditions: MDA-MB468 cells, 45 h incubation
Description: as §9, §10, §11, §12, §13, §14

p38alpha = biological target: T3, p38alpha (Homo sapiens, UniProt Q16539); experiment: Cell-free kinase assay (ALPHA technology), p38alpha; format: biochemical; conditions: at 10 μM or 100 μM* ATP, recombinant human kinase
T3 construct: in some cases as full-length kinases, in some cases as truncated fragments
T3 sequence (Q16539 whole entry, the tested form may be a part): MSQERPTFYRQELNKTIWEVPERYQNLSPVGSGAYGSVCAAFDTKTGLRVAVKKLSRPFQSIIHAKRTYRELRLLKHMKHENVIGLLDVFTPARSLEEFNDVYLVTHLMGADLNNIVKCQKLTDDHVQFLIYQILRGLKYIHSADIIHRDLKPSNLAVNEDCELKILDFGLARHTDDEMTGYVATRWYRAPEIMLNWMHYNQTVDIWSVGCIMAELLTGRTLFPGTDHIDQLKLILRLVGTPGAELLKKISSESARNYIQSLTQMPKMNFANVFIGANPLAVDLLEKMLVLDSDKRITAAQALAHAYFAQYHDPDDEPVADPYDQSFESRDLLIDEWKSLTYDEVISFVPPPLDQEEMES
Description: as §3, §4, §5, §6

CCNC(=O)Nc1ccc2ncc(-c3ccc(OC(=O)OC)cc3)nc2n1 [Compound 9, 4-[6-(3-Ethylurea)pyrido[2,3-b]pyrazin-3-yl]phenyl methyl carbonate]
inhibition at 50 µM (Erk →pRsk): 90%
melting point: 243 to 245 °C
inhibition at 50 µM (PI3K →pAkt): 50%
IC50 (Jnk1 + Jnk2): > 100 µM

CCNC(=O)Nc1ccc2ncc(-c3ccc(OC(=O)OCCOC)cc3)nc2n1 [Compound 10, 4-[6-(3-Ethylurea)pyrido[2,3-b]pyrazin-3-yl]phenyl(2-methoxyethyl)carbonate]
inhibition at 50 µM (Erk →pRsk): 100%
melting point: 230 to 232 °C
inhibition at 50 µM (PI3K →pAkt): 100%
IC50 (Jnk1 + Jnk2): 2.9 µM

CCNC(=O)Nc1ccc2ncc(-c3cccc(OC(=O)OCCOC)c3)nc2n1 [Compound 16, 3-[6-(3-Ethylurea)pyrido[2,3-b]pyrazin-3-yl]phenyl 2-methoxyethyl carbonate]
IC50 (Erk2): 0.513 µM
EC50 (Hct116): 11 µM
IC50 (PI3Kalpha): 3.3 µM
EC50 (BxPC3; Homo sapiens, BXPC-3, 45 h): > 25 µM
EC50 (MDA-MB468; Homo sapiens, MDA-MB-468, 45 h): 11 µM
IC50 (Jnk1 + Jnk2): 5.6 µM

CCNC(=O)Nc1ccc2ncc(-c3ccc(OC(=O)OCC(C)C)cc3)nc2n1 [Compound 17, 4-[6-(3-Ethylurea)pyrido[2,3-b]pyrazin-3-yl]phenyl isobutyl carbonate]
IC50 (Erk2): 0.167 µM
EC50 (Hct116): 3.4 µM
IC50 (PI3Kalpha): 11.8 µM
EC50 (BxPC3; Homo sapiens, BXPC-3, 45 h): > 25 µM
EC50 (MDA-MB468; Homo sapiens, MDA-MB-468, 45 h): > 25 µM
IC50 (Jnk1 + Jnk2): > 100 µM

CCNC(=O)Nc1ccc(-c2cnc3ccc(NC(=O)NCC)nc3n2)cc1 [Compound 23, 1-Ethyl-3-{3-[4-(3-ethylurea)phenyl]pyrido[2,3-b]pyrazin-6-yl}urea]
inhibition at 50 µM (Erk →pRsk): 0%
IC50 (Erk2): 1.9 µM
melting point: > 350 °C (dec.)
EC50 (Hct116): 16 µM
IC50 (PI3Kalpha): 1.3 µM
EC50 (BxPC3; Homo sapiens, BXPC-3, 45 h): > 50 µM
inhibition at 50 µM (PI3K →pAkt): 70%
EC50 (MDA-MB468; Homo sapiens, MDA-MB-468, 45 h): > 25 µM
IC50 (Jnk1 + Jnk2): 5.7 µM

CCNC(=O)Nc1ccc2ncc(-c3ccc(OC(=O)OCCOC)c(OC)c3)nc2n1 [Compound 32, 4-[6-(3-Ethylurea)pyrido[2,3-b]pyrazin-3-yl]-2-methoxyphenyl 2-methoxyethyl carbonate]
inhibition at 50 µM (Erk →pRsk): 100%
IC50 (Erk2): 0.824 µM
EC50 (Hct116): 2.2 µM
IC50 (PI3Kalpha): 1.3 µM
EC50 (BxPC3; Homo sapiens, BXPC-3, 45 h): 5.9 µM
inhibition at 50 µM (PI3K →pAkt): 90%
EC50 (MDA-MB468; Homo sapiens, MDA-MB-468, 45 h): 4.5 µM
IC50 (Jnk1 + Jnk2): 4.2 µM

CCNC(=O)Nc1ccc2ncc(Nc3cccc(C(=O)NC)c3)nc2n1 [Compound 50, 3-[6-(3-Ethylurea)pyrido[2,3-b]pyrazin-3-ylamino]-N-methylbenzamide]
IC50 (Erk2): 4.7 µM
melting point: 228 to 234 °C
IC50 (PI3Kalpha): 0.683 µM
IC50 (Jnk1 + Jnk2): > 31.6 µM
IC50 (p38alpha): 18.1 µM

CCNC(=O)Nc1ccc2ncc(Nc3ccc(CN4CCCCC4)cc3)nc2n1 [Compound 51, 1-Ethyl-3-[3-(4-piperidin-1-ylmethylphenylamino)pyrido[2,3-b]pyrazin-6-yl]urea]
IC50 (Erk2): 19.1 µM
melting point: 221 to 224 °C
IC50 (PI3Kalpha): 7.5 µM
IC50 (Jnk1 + Jnk2): > 31.6 µM
IC50 (p38alpha): > 100 µM

CCNC(=O)Nc1ccc2ncc(-c3ccc(OC(=O)OCCOC)cc3)nc2n1 [Compound 56, 4-[6-(3-Ethylurea)pyrido[2,3-b]pyrazin-3-yl]phenyl 2-methoxyethyl carbonate p-toluenesulphonate]
IC50 (Erk2): 0.272 µM
EC50 (Hct116): 9.4 µM
IC50 (PI3Kalpha): 1.3 µM
EC50 (BxPC3): > 20 µM
EC50 (MDA-MB468): 15.5 µM
IC50 (Jnk1 + Jnk2): 3.1 µM

CONC(=O)Nc1ccc2ncc(-c3ccc(O)c(OC)c3)nc2n1 [Compound 61, 1-Methoxy-3-[3-(4-hydroxy-3-methoxy-phenyl)-pyrido[2,3-b]pyrazin-6-yl]-urea]
IC50 (Erk2): 0.3 µM
EC50 (Hct116): 6 µM
IC50 (PI3Kalpha): 1.5 µM
EC50 (MDA-MB468; Homo sapiens, MDA-MB-468, 45 h): 7.1 µM
IC50 (Jnk1 + Jnk2): 2.1 µM
IC50 (p38alpha): > 100 µM

— patent US8217042B2, “Pyridopyrazines and their use as modulators of kinases” (Zentaris GmbH, priority 2005, dated 2012)
